Assay results as given in patent publication US11274115B2, “Imidazoquinoline derivatives and their use in therapy” (GLAXOSMITHKLINE BIOLOGICALS SA, priority 2016, dated 2022).
Like-named read-outs stand apart in the source and are kept apart here.

What was measured:
Type in all cases: cell-based
human TLR8 = target: T1, human TLR8 (Homo sapiens, UniProt Q9NR97); experiment: hTLR8 agonist reporter assay in HEK293 cells (NFκB-SEAP); settings: for EC50: read-out: hTLR8 ED50
T1 construct: host or cells: HEK293
T1 sequence (Q9NR97 27-1041): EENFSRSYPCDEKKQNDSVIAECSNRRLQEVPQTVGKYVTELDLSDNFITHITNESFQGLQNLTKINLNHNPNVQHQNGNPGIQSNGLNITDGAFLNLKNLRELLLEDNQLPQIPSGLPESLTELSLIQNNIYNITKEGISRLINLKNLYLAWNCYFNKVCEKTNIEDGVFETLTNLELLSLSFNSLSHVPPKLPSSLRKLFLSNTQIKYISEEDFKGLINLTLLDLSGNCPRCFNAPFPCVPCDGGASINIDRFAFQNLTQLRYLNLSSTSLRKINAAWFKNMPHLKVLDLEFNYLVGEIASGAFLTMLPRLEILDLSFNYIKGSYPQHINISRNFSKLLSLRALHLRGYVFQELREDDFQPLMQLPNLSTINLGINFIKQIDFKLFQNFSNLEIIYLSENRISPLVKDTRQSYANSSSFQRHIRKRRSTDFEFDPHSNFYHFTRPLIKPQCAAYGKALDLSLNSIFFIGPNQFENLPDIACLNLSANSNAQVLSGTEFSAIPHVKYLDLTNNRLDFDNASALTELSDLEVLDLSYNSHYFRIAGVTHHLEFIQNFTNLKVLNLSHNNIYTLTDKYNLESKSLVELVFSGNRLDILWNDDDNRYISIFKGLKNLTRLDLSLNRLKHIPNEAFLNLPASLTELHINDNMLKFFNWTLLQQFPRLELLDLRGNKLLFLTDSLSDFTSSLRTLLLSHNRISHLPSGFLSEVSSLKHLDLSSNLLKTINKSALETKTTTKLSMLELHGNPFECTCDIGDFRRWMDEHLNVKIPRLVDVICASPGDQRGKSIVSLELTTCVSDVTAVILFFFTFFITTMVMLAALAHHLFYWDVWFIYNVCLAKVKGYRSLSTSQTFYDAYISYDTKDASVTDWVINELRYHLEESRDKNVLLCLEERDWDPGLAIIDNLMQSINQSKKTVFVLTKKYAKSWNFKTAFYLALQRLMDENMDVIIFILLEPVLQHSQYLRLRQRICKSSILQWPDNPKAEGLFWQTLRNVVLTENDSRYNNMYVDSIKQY
Procedure: Assay for hTLR7 and hTLR8 Agonist Activity in HEK-293 Cells
Determination of TLR agonist activity was performed using the HEK293 […]. This assay measures TLR7 and TLR8 selectivity and potency of the compounds tested. HEK293 cells expressing human TLR7 or TLR8 and NFκB responsive Secreted Embryonic Alkaline Phosphatase (SEAP) reporter gene were obtained from InvivoGen (San Diego, Calif.). These cells were maintained in culture media of Dulbecco's Modified Eagle Medium (DMEM) (Invitrogen, Grand Island, N.Y.), 10% Fetal Bovine Serum (FBS) (Sigma, St. Louis, Mo.) and selection antibiotics (Invitrogen, and Invivogen). HEK293 stably transfected with human TLR7 (hTLR7) or human TLR8 (hTLR8) were stimulated for 24 h with aqueous formulations of test compounds and culture supernatants were analyzed for NFκB activation using the colorimetric SEAP detection kit QuantBlue (InvivoGen).

[1] = tested on: human peripheral blood mononuclear cells (hPBMCs); experiment: IFN-γ induction in hPBMCs; settings: 24 h
Procedure: (§1) Assays to Measure Cytokine Induction
(§2) Test compounds were evaluated for cytokine induction in human peripheral blood mononuclear cells (hPBMCs).
(§3) Primary human PBMCs were isolated from fresh blood from healthy donors via Ficoll gradient separation and plated at 0.5×10^6 cells/well in 96-well tissue culture plates (RPMI-1640 plus 10% FBS). hPBMCs were maintained with RPMI-1640 culture media (Invitrogen, Grand Island, N.Y.), antibiotics (Invitrogen) and 10% FBS (Sigma).
(§4) Incubation and Assays for IFN-γ, IFN-α and TNF-α
(§5) hPBMCs were stimulated for 24 h with aqueous formulations of test compounds. Culture supernatants were analyzed for TNF-α and IFN-γ induction using multiplex kits (FluoroKine multiplex kits from R&D Systems, Minneapolis, Minn.) and for IFN-α induction using human IFN-α VeriKine ELISA kit (Pestka Biomedical Laboratories, Inc., Piscataway, N.J.).

[2] = tested on: human peripheral blood mononuclear cells (hPBMCs); experiment: IFN-α induction in hPBMCs; settings: 24 h
Procedure: as §1, §2, §3, §4, §5

[3] = tested on: human peripheral blood mononuclear cells (hPBMCs); experiment: TNF-α induction in hPBMCs; settings: 24 h
Procedure: as §1, §2, §3, §4, §5

Compound: CCCCCCCC/C=C\CCCCCCCC(=O)OC[C@H](COP(=O)(O)OCCOc1ccc2c(c1)nc(N)c1nc(CCCC)n(CCO)c12)OC(=O)CCCCCCC/C=C\CCCCCCCC [Example 1]
- EC50 (human TLR8; Table 1, FIG. 2, 24 h stimulation, aqueous formulations): 100 nM
- EC50 (human TLR8; Table 2, FIG. 4, another occasion, * = only very low levels of NFKB activation were detected): 800 nM
- hTLR8 agonist activity, in words (human TLR8; Table 3, FIG. 6): agonist of both TLR7 and TLR8
- EC50 (human TLR8; Table 3, FIG. 6, another occasion, * = only very low levels of NFKB activation were detected): 590 nM
- EC50 (human TLR8; Table 4, FIG. 8, another occasion): 710 nM
- hTLR8 agonist activity, in words (human TLR8; text on Table 1, FIG. 2): significantly more potent as an agonist of hTLR7 and hTLR8 than Comparative Example 2
- hTLR8 agonist activity, in words (human TLR8; text on Table 2, FIG. 4): more active than Comparative Example 2 as an agonist of hTLR7 and hTLR8
- IFN-γ induction, in words ([1]; FIG. 9): more potent than Comparative Example 3 but less potent than Comparative Example 1
- IFN-γ induction, in words ([1]; FIG. 11, another occasion): potent at inducing IFN-γ and each was more potent than Comparative Example 3
- IFN-α induction, in words ([2]; FIG. 10): equipotent at inducing IFN-α and these were more potent than Comparative Example 1 and Comparative Example 2 in this assay at a lower dose
- IFN-α induction, in words ([2]; FIG. 12, another occasion): more potent at inducing IFN-α than Comparative Examples 1, 2 and 3
- IFN-α induction, in words ([2]; FIG. 14, another occasion): very effective at inducing IFN-α
- IFN-α induction, in words ([2]; FIG. 16, another occasion): good activity in inducing IFN-α
- TNF-α induction, in words ([3]; FIG. 13): potent at inducing TNF-α
- TNF-α induction, in words ([3]; FIG. 15, another occasion): effective at inducing TNF-α
